# Measured values: paper PMC11391541, “Target-Directed Dynamic Combinatorial Chemistry Affords Binders of Mycobacterium tuberculosis IspE” (ACS Omega, 2024)
# Assays:
# MtbIspE = MtbIspE (Mycobacterium tuberculosis, UniProt P9WKG7); experiment: target-directed dynamic combinatorial chemistry (tdDCC), amplification of acylhydrazones in protein-templated vs blank DCL (HPLC-MS/MS, UV 310 nm); format: binding
# Experimental: In this study, we used MtbIspE as target protein and the reversible reaction of hydrazides and aldehydes to form dynamic combinatorial libraries (DCLs) of acylhydrazones. […] To accelerate the reaction at neutral pH, aniline was used as nucleophilic catalyst activating the aldehydes.[2],[4],[19] We analyzed the protein’s effect on the DCLs by comparing HPLC-MS/MS data of blank vs protein-templated (PT) experiments. The experiments spanned 3 days, with periodic sampling (every 2 h, followed by two samples per day after 8 h). The addition of NaOH to raise the pH and halt the reactions ensured the sample composition was preserved for analysis.[19] Templated experiments were conducted in duplicate, and the protein was denatured and removed prior to HPLC-MS/MS analysis.
# The tdDCC hits and thus potential MtbIspE binders are amplified in the PT experiment compared to the blank experiment. The first step in the analysis of DCLs is the determination of the equilibrium since the amplification factors need to be calculated when the concentration of products is stable. To determine the evolution of the possible products, it is important to measure the characteristic UV absorbance of the acylhydrazones linker (310 nm) during the HPLC-MS/MS run. The resulting UV peaks are assigned to each product using the MS data (Figures S3–S6). The sum of all peak areas is normalized to 100% in order to obtain the respective relative peak area (RPA) for each product. The RPA values represent relative concentrations, determined at each time point of the blank experiment until the values stabilize. […] However, the rest of the compounds are out of range, making a visual inspection difficult. […] The other three libraries behaved in the same way, reaching equilibrium within 24 h and also maintained stable concentrations beyond (Figures S7–S9). To determine the tdDCC hits, we compared the RPAs of the PT experiments to the blanks at 24 h and set a threshold of at least 50% increase in compound formation. In total, 11 acylhydrazones passed our criteria, with amplification factors ranging from […] to 15.5, qualifying them for resynthesis and further evaluation (Figure 3). During the analysis of chromatograms, challenges arose concerning product identification. Some compound peaks were not neatly separated, forcing us to consider them in clusters, others presented two peaks, likely due to isomers, and were considered separately in our evaluation. Lastly, some compounds were detected by MS, but their respective UV signal interfered with the injection peak or was too low for integration (<1%), both in the blank and PT experiments. Consequently, we excluded these compounds from the analysis (Figure S3–S6).
# To a well of a 24-well plate, containing Tris buffer (pH 7.0) were added hydrazides (300 μM each, in DMSO), aldehydes (100 μM each, in DMSO), aniline (20 mM, in DMSO), the protein MtbIspE (25 or 40 μM in Tris buffer at pH 7.0), and an additional amount of DMSO to reach a final concentration of 5% in the DCL with 0.5 mL of end-volume. The DCL was allowed to mix on a plate shaker at room temperature and was frequently monitored via LCMS-MS. For analysis, 30 μL of the corresponding library was mixed with 42 μL acetonitrile and 3 μL of NaOH (1 M), the mixture was centrifuged, and the supernatant was used for the analysis. PT experiments were run in duplicates and the protein was omitted for the blank experiments.
# High-resolution mass (HRMS) of final products was determined by HPLC-MS/MS using a Thermo Scientific Q Exactive Focus Orbitrap LC -MS/MS system. All compounds were analyzed for purity by LCMS on Acquity UPLC-SQD system from Waters with a gradient elution of Water (Formic acid 0.1%)/Acetonitrile on an HSS - T3 column (2.1 x 50 mm, Waters), 1.8 µm, at 30°C, PDA detection between 240 -320 nm, and MS detection by simultaneous ES+/ES- ionization in a mass range of 150 -800. The flow is set to 0.9 ml/min, and the […]
# gradient time is 1.5 min. […]
# fungi = tested on: fungi; parameters: method as in PMID 25943854; settings: cited from earlier work
# MtbIspE, sequence (P9WKG7 whole entry): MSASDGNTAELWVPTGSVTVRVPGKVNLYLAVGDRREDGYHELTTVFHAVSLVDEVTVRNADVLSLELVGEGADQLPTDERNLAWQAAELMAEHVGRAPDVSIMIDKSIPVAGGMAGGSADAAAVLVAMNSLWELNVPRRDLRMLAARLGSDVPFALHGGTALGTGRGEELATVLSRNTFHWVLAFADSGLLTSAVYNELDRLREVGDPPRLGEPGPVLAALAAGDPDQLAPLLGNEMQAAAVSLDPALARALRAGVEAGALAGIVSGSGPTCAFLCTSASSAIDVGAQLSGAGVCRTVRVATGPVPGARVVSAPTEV
smiles,measurement,setting,value
"O=C(N/N=C/c1ccc(C(F)(F)F)cc1)c1cccc(Cl)c1 [K4, (E)-3-Chloro-N′-(4-(trifluoromethyl)benzylidene)benzohydrazide]","Amplification factor (DCL-2, control compound)","MtbIspE; DCL-2, 40 mol % MtbIspE",0.0
"O=C(N/N=C/c1cc(Cl)ccc1O)c1ccncc1 [L1, (E)-N′-(5-Chloro-2-hydroxybenzylidene)isonicotinohydrazide]",Amplification factors (DCL-3),"MtbIspE; DCL-3, 24 h, 40 mol % MtbIspE, I1 and K1 integrated as one cluster",4.1
same,antifungal properties,fungi,antifungal properties
"COc1ccc(-c2cc(/C=N/NC(=O)c3cc(CC(C)C)n[nH]3)no2)cc1 [D6, (E)-3-Isobutyl-N′-((5-(4-methoxyphenyl)isoxazol-3-yl)methylene)-1H-pyrazole-5-carbohydrazide]",Amplification factors (DCL-4),"MtbIspE; DCL-4, 24 h, 40 mol % MtbIspE",1.0
